The source made the active and inactive calls. No cut-off for these calls is given here.
Columns and labels:
Anastrepha striata [1] = experiment: Reduction of fertility in 7 days old adult of Anastrepha striata assessed as reduction of egg hatching at 30 mg/g treated with diet measured after 11 days oviposition; type: functional; parameters: scale not given: the % may be the effect or the level left
Anastrepha striata [2] = experiment: Reduction of fertility in 7 days old adult of Anastrepha striata assessed as reduction of egg hatching at 30 mg/g treated with diet measured after 7 days oviposition; type: functional; parameters: scale not given: the % may be the effect or the level left
Anastrepha ludens [3] = experiment: Reduction of fertility in 7 days old adult of Anastrepha ludens assessed as reduction of egg hatching at 5 mg/g treated with diet measured after 11 days oviposition; type: functional; parameters: scale not given: the % may be the effect or the level left
Anastrepha ludens [4] = experiment: Reduction of fertility in 7 days old adult of Anastrepha ludens assessed as reduction of egg hatching at 5 mg/g treated with diet measured after 7 days oviposition; type: functional; parameters: scale not given: the % may be the effect or the level left
Anastrepha ludens [5] = experiment: Reduction of fertility in 7 days old adult of Anastrepha ludens assessed as reduction of egg hatching at 5 mg/g treated with diet measured after 3 days oviposition; type: functional; parameters: scale not given: the % may be the effect or the level left
Anastrepha ludens [6] = experiment: Reduction of fertility in 7 days old adult of Anastrepha ludens assessed as reduction of egg hatching at 1 mg/g treated with diet measured after 9 days oviposition; type: functional; parameters: scale not given: the % may be the effect or the level left
Anastrepha ludens [7] = experiment: Reduction of fertility in 7 days old adult of Anastrepha ludens assessed as reduction of egg hatching at 1 mg/g treated with diet measured after 5 days oviposition; type: functional; parameters: scale not given: the % may be the effect or the level left
Anastrepha striata [8] = experiment: Effect on fecundity in 7 days old adult of Anastrepha striata at 0.1 to 30 mg/g treated with diet after 24 hr; type: functional, organism-based
Anastrepha obliqua [9] = experiment: Reduction of fertility in 7 days old adult of Anastrepha obliqua assessed as reduction of egg hatching at 5 mg/g treated with diet measured after 7 days oviposition; type: functional; parameters: scale not given: the % may be the effect or the level left
Anastrepha ludens [10] = experiment: Reduction of fertility in 7 days old adult of Anastrepha ludens assessed as reduction of egg hatching at 0.5 mg/g treated with diet measured after 11 days oviposition; type: functional; parameters: scale not given: the % may be the effect or the level left
Anastrepha ludens [11] = experiment: Reduction of fertility in 7 days old adult of Anastrepha ludens assessed as reduction of egg hatching at 0.5 mg/g treated with diet measured after 5 days oviposition; type: functional; parameters: scale not given: the % may be the effect or the level left
Anastrepha ludens [12] = experiment: Reduction of fertility in 7 days old adult of Anastrepha ludens assessed as reduction of egg hatching at 0.1 mg/g treated with diet measured after 9 days oviposition; type: functional; parameters: scale not given: the % may be the effect or the level left
Anastrepha serpentina [13] = experiment: Reduction of fertility in 7 days old adult of Anastrepha serpentina assessed as reduction of egg hatching at 0.1 mg/g treated with diet measured after 11 days oviposition; type: functional; parameters: scale not given: the % may be the effect or the level left
Anastrepha obliqua [14] = experiment: Reduction of fertility in 7 days old adult of Anastrepha obliqua assessed as reduction of egg hatching at 30 mg/g treated with diet measured after 7 days oviposition; type: functional; parameters: scale not given: the % may be the effect or the level left
Anastrepha obliqua [15] = experiment: Reduction of fertility in 7 days old adult of Anastrepha obliqua assessed as reduction of egg hatching at 10 mg/g treated with diet measured after 7 days oviposition; type: functional; parameters: scale not given: the % may be the effect or the level left
Anastrepha obliqua [16] = experiment: Reduction of fertility in 7 days old adult of Anastrepha obliqua assessed as reduction of egg hatching at 10 mg/g treated with diet measured after 5 days oviposition; type: functional; parameters: scale not given: the % may be the effect or the level left
Anastrepha obliqua [17] = experiment: Reduction of fertility in 7 days old adult of Anastrepha obliqua assessed as reduction of egg hatching at 1 mg/g treated with diet measured after 5 days oviposition; type: functional; parameters: scale not given: the % may be the effect or the level left
Anastrepha obliqua [18] = experiment: Reduction of fertility in 7 days old adult of Anastrepha obliqua assessed as reduction of egg hatching at 1 mg/g treated with diet measured after 1 day oviposition; type: functional; parameters: scale not given: the % may be the effect or the level left
Anastrepha obliqua [19] = experiment: Reduction of fertility in 7 days old adult of Anastrepha obliqua assessed as reduction of egg hatching at 0.1 mg/g treated with diet measured after 5 days oviposition; type: functional; parameters: scale not given: the % may be the effect or the level left
Anastrepha ludens [20] = experiment: Reduction of fertility in 7 days old adult of Anastrepha ludens assessed as reduction of egg hatching at 30 mg/g treated with diet measured after 7 days oviposition; type: functional; parameters: scale not given: the % may be the effect or the level left
Anastrepha ludens [21] = experiment: Reduction of fertility in 7 days old adult of Anastrepha ludens assessed as reduction of egg hatching at 30 mg/g treated with diet measured after 3 days oviposition; type: functional; parameters: scale not given: the % may be the effect or the level left
Anastrepha striata [22] = experiment: Reduction of fertility in 7 days old adult of Anastrepha striata assessed as reduction of egg hatching at 1 mg/g treated with diet measured after 9 days oviposition; type: functional; parameters: scale not given: the % may be the effect or the level left
Anastrepha striata [23] = experiment: Reduction of fertility in 7 days old adult of Anastrepha striata assessed as reduction of egg hatching at 1 mg/g treated with diet measured after 1 day oviposition; type: functional; parameters: scale not given: the % may be the effect or the level left
Anastrepha striata [24] = experiment: Reduction of fertility in 7 days old adult of Anastrepha striata assessed as reduction of egg hatching at 0.5 mg/g treated with diet measured after 11 days oviposition; type: functional; parameters: scale not given: the % may be the effect or the level left
Anastrepha striata [25] = experiment: Reduction of fertility in 7 days old adult of Anastrepha striata assessed as reduction of egg hatching at 0.5 mg/g treated with diet measured after 3 days oviposition; type: functional; parameters: scale not given: the % may be the effect or the level left
Anastrepha striata [26] = experiment: Reduction of fertility in 7 days old adult of Anastrepha striata assessed as reduction of egg hatching at 0.5 mg/g treated with diet measured after 1 day oviposition; type: functional; parameters: scale not given: the % may be the effect or the level left
Anastrepha striata [27] = experiment: Reduction of fertility in 7 days old adult of Anastrepha striata assessed as reduction of egg hatching at 0.1 mg/g treated with diet measured after 3 days oviposition; type: functional; parameters: scale not given: the % may be the effect or the level left
Anastrepha serpentina [28] = experiment: Reduction of fertility in 7 days old adult of Anastrepha serpentina assessed as reduction of egg hatching at 30 mg/g treated with diet measured after 11 days oviposition; type: functional; parameters: scale not given: the % may be the effect or the level left
Anastrepha serpentina [29] = experiment: Reduction of fertility in 7 days old adult of Anastrepha serpentina assessed as reduction of egg hatching at 10 mg/g treated with diet measured after 1 day oviposition; type: functional; parameters: scale not given: the % may be the effect or the level left
Anastrepha serpentina [30] = experiment: Reduction of fertility in 7 days old adult of Anastrepha serpentina assessed as reduction of egg hatching at 5 mg/g treated with diet measured after 7 days oviposition; type: functional; parameters: scale not given: the % may be the effect or the level left
Anastrepha serpentina [31] = experiment: Reduction of fertility in 7 days old adult of Anastrepha serpentina assessed as reduction of egg hatching at 5 mg/g treated with diet measured after 5 days oviposition; type: functional; parameters: scale not given: the % may be the effect or the level left
Anastrepha serpentina [32] = experiment: Reduction of fertility in 7 days old adult of Anastrepha serpentina assessed as reduction of egg hatching at 5 mg/g treated with diet measured after 1 day oviposition; type: functional; parameters: scale not given: the % may be the effect or the level left
Anastrepha serpentina [33] = experiment: Reduction of fertility in 7 days old adult of Anastrepha serpentina assessed as reduction of egg hatching at 1 mg/g treated with diet measured after 7 days oviposition; type: functional; parameters: scale not given: the % may be the effect or the level left
Anastrepha serpentina [34] = experiment: Reduction of fertility in 7 days old adult of Anastrepha serpentina assessed as reduction of egg hatching at 1 mg/g treated with diet measured after 3 days oviposition; type: functional; parameters: scale not given: the % may be the effect or the level left
Anastrepha serpentina [35] = experiment: Reduction of fertility in 7 days old adult of Anastrepha serpentina assessed as reduction of egg hatching at 1 mg/g treated with diet measured after 1 day oviposition; type: functional; parameters: scale not given: the % may be the effect or the level left
Anastrepha serpentina [36] = experiment: Reduction of fertility in 7 days old adult of Anastrepha serpentina assessed as reduction of egg hatching at 0.5 mg/g treated with diet measured after 9 days oviposition; type: functional; parameters: scale not given: the % may be the effect or the level left
Anastrepha serpentina [37] = experiment: Reduction of fertility in 7 days old adult of Anastrepha serpentina assessed as reduction of egg hatching at 0.5 mg/g treated with diet measured after 5 days oviposition; type: functional; parameters: scale not given: the % may be the effect or the level left
Anastrepha striata [38] = experiment: Reduction of fertility in 7 days old adult of Anastrepha striata assessed as reduction of egg hatching at 5 mg/g treated with diet measured after 9 days oviposition; type: functional; parameters: scale not given: the % may be the effect or the level left
Anastrepha serpentina [39] = experiment: Effect on fecundity in 7 days old adult male of Anastrepha serpentina at 30 mg/g treated with diet after 24 hr in presence of untreated adult female of Anastrepha serpentina; type: functional, organism-based
Anastrepha ludens [40] = experiment: Effect on fecundity in 7 days old adult male of Anastrepha ludens at 30 mg/g treated with diet after 24 hr in presence of untreated adult female of Anastrepha ludens; type: functional, organism-based
Anastrepha obliqua [41] = experiment: Effect on fecundity in 7 days old adult female of Anastrepha obliqua at 30 mg/g treated with diet after 24 hr in presence of untreated adult male of Anastrepha obliqua; type: functional, organism-based

**Q.** Which results are given for `O=C(NC(=O)c1c(F)cccc1F)Nc1cc(Cl)c(OC(F)(F)C(F)C(F)(F)F)cc1Cl` (racemic) [LUFENURON]?
**A.** Activity (Anastrepha striata [1]): 8%; Activity (Anastrepha striata [2]): 0.7%; Activity (Anastrepha ludens [3]): 32.7%; Activity (Anastrepha ludens [4]): 28%; Activity (Anastrepha ludens [5]): 16%; Activity (Anastrepha ludens [6]): 20%; Activity (Anastrepha ludens [7]): 8%; Activity (Anastrepha striata [8]): Active; Activity (Anastrepha obliqua [9]): 0%; Activity (Anastrepha ludens [10]): 26.7%; Activity (Anastrepha ludens [11]): 10.7%; Activity (Anastrepha ludens [12]): 44.7%; Activity (Anastrepha serpentina [13]): 80.3%; Activity (Anastrepha obliqua [14]): 0.7%; Activity (Anastrepha obliqua [15]): 1.3%; Activity (Anastrepha obliqua [16]): 0%; Activity (Anastrepha obliqua [17]): 0%; Activity (Anastrepha obliqua [18]): 0%; Activity (Anastrepha obliqua [19]): 8.7%; Activity (Anastrepha ludens [20]): 4%; Activity (Anastrepha ludens [21]): 2.7%; Activity (Anastrepha striata [22]): 4.7%; Activity (Anastrepha striata [23]): 6.7%; Activity (Anastrepha striata [24]): 28.7%; Activity (Anastrepha striata [25]): 22.7%; Activity (Anastrepha striata [26]): 13.3%; Activity (Anastrepha striata [27]): 80%; Activity (Anastrepha serpentina [28]): 78%; Activity (Anastrepha serpentina [29]): 18.3%; Activity (Anastrepha serpentina [30]): 96.7%; Activity (Anastrepha serpentina [31]): 83.1%; Activity (Anastrepha serpentina [32]): 34.8%; Activity (Anastrepha serpentina [33]): 92.5%; Activity (Anastrepha serpentina [34]): 71.1%; Activity (Anastrepha serpentina [35]): 42.7%; Activity (Anastrepha serpentina [36]): 88%; Activity (Anastrepha serpentina [37]): 93.3%; Activity (Anastrepha striata [38]): 8.7%; Activity (Anastrepha serpentina [39]): inactive; Activity (Anastrepha ludens [40]): inactive; Activity (Anastrepha obliqua [41]): inactive
